Results: patent publication US7229991B2, “Substituted 5-aminomethyl-1H-pyrrole-2-carboxamides” (priority 2002, dated 2007)
Where two headings read alike, the source gives them in different places.

Columns and labels:
[1] = target: human μ opiate receptor (Homo sapiens, UniProt P35372); assay: human μ opiate receptor binding assay with [3H]-naloxone, CHO-K1 membrane preparation; conditions: for inhibition at 1 µM: read-out: Human ORm Nal inhibition [%]
Description: b) Method for Determining Affinity for the Human μ Opiate Receptor
Receptor affinity for the human μ opiate receptor was determined in a homogeneous batch in microtitre plates. To this end, dilution series of the particular substituted 5-aminomethyl-1H-pyrrole-2-carboxylic acid amide of the general formula I to be tested were incubated at room temperature for 90 minutes in a total volume of 250 μl with a receptor membrane preparation (15-40 μg of protein per 250 μl of incubation batch) of CHO—K1 cells, which express the human μ opiate receptor (RB—HOM receptor membrane preparation from NEN, Zaventem, Belgium) in the presence of 1 nmol/l of the radioactive ligand [^3H]-naloxone (NET719, from NEN, Zaventem, Belgium) and of 1 mg of WGA-SPA beads (wheat germ agglutinin SPA beads from Amersham/Pharmacia, Freiburg, Germany). The incubation buffer used was 50 mmol/l tris-HCl supplemented with 0.05 wt. % of sodium azide and with 0.06 wt. % of bovine serum albumin. 25 μmol/l of naloxone were additionally added to determine nonspecific binding. Once the ninety minute incubation time had elapsed, the microtitre plates were centrifuged off for 20 minutes at 1000 g and the radioactivity measured in a β-Counter (Microbeta-Trilux, from PerkinElmer Wallac, Freiburg, Germany). The percentage displacement of the radioactive ligand from its binding to the human μ opiate receptor was determined at a concentration of the compounds to be tested of 1 μmol/l and stated as percentage inhibition of specific binding. On the basis of the percentage displacement by different concentrations of the compounds to be tested of the general formula I, IC50 inhibition concentrations which bring about 50% displacement of the radioactive ligand were calculated. Ki values for the test substances were obtained by conversion using the Cheng-Prusoff equation.

[2] = target: T1, 5-HT uptake (Rattus norvegicus, UniProt P31652); assay: 5-HT uptake inhibition in rat brain synaptosomes (medulla and pons); assay type: biochemical; set-up: concentration or dose not given beside the values; conditions: conc. 10 (unit not given), [3H]-5-HT
T1 construct: Synaptosomes from rat brain regions (the “P2” fraction was used) were freshly isolated; from tissue; host or cells: rat brain synaptosomes (P2 fraction), medulla and pons
T1 sequence (P31652 whole entry): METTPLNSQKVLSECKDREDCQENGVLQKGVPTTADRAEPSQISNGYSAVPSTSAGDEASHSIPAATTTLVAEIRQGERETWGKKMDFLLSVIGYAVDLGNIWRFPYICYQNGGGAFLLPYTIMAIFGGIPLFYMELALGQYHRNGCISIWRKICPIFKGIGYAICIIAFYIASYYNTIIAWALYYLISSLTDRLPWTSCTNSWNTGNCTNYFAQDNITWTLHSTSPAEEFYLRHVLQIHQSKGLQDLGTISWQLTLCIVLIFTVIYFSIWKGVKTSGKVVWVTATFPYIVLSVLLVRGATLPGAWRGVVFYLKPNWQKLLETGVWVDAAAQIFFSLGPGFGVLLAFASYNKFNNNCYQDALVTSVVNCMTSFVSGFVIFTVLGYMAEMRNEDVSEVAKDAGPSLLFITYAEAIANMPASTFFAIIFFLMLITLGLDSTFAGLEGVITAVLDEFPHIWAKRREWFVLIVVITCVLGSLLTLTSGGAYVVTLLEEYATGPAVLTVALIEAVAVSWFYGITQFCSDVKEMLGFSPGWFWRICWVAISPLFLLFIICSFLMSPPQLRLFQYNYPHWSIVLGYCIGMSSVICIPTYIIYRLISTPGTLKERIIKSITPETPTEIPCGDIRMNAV
Excerpt: (§1) c) Method for Determining Noradrenalin and the 5-HT Uptake Inhibition:
(§2) Synaptosomes from rat brain regions (the “P2” fraction was used) were freshly isolated for in vitro studies, as described in the publication “The isolation of nerve endings from brain” by E. G. Gray and V. P. Whittaker, J. Anatomy 76, pages 79-88, 1962. The corresponding literature description is hereby introduced as a reference and is deemed to be part of the disclosure.
(§3) The tissue (hypothalamus for the determination of noradrenalin uptake inhibition and medulla and pons for the determination of 5-HT uptake inhibition) was homogenised in ice-cooled 0.32 M sucrose (100 mg of tissue/1 mL) in a glass homogeniser with teflon pestle using five complete up and down strokes at 840 revolutions/minute.
(§4) The homogenate was centrifuged at 4° C. for 10 minutes at 1000 g. After subsequent centrifugation at 17000 g for 55 minutes, the synaptosomes (P2 fraction) were obtained, which were resuspended in 0.32 M glucose (0.5 mL/100 mg of original weight).
(§5) The particular uptake was measured in a 96-well microtitre plate. The volume was 250 μl and the incubation proceeded at room temperature (approx. 20-25° C.) under an O2 atmosphere.
(§6) The incubation time was 7.5 minutes for [^3H]-NA and 5 minutes for [^3H]-5-HT. The 96 samples were then filtered through a Unifilter GF/B® microtitre plate (Packard) and washed with […] of incubated buffer using a “Brabdel MPXRI-96T Cell-Harvester”. The Unifilter GF/B plate was dried for 1 hour at 55° C. The plate was then sealed with a Back seal® (Packard) and 35 μl of scintillation fluid were added per well (Ultima gold®, Packard). After sealing with a top seal® (Packard) and establishment of equilibrium (around 5 hours), radioactivity was determined in a “Trilux 1450 Microbeta” (Wallac).
(§7) The quantity of protein used in the above determination corresponded to the values known from the literature, as for example described in “Protein measurement with the folin phenol reagent”, Lowry et al., J. Biol. Chem., 193, 265-275, 1951. A detailed description of the method may also be found in the literature, for example in M.Ch. Frink, H.-H. Hennies, W. Engelberger, M. Haurand and B. Wilffert (1996) Arzneim.-Forsch./Drug Res. 46 (III), 11, 1029-1036. The corresponding literature descriptions are hereby introduced as a reference and are deemed to be part of the disclosure.

[3] = target: T2, NA transporter (Rattus norvegicus, UniProt Q63380); assay: noradrenalin uptake inhibition in rat brain synaptosomes (hypothalamus); assay type: biochemical; set-up: concentration or dose not given beside the values; conditions: conc. 10 (unit not given), [3H]-NA
T2 construct: Synaptosomes from rat brain regions (the “P2” fraction was used) were freshly isolated; from tissue; host or cells: rat brain synaptosomes (P2 fraction), hypothalamus
T2 sequence (Q63380 1-617): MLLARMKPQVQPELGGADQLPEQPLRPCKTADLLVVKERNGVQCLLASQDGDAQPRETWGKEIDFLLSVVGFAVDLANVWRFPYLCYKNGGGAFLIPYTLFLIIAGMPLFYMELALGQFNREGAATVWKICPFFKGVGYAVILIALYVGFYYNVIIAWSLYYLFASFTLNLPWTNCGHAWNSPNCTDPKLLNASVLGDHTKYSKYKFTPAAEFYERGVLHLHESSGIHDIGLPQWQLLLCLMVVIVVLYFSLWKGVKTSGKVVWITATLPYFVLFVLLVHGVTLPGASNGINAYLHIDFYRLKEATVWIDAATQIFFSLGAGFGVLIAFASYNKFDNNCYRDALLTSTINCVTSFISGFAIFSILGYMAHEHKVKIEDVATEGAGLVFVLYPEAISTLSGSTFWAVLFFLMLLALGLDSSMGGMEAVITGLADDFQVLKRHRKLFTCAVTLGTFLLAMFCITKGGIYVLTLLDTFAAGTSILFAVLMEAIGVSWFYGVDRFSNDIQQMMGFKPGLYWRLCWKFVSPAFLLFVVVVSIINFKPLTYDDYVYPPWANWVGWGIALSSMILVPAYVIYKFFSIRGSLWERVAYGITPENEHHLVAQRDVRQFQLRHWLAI
Excerpt: as §1, §2, §3, §4, §5, §6
The following characteristics were determined for the NA transporter: NAuptake: Km=0.32±0.11 μM
as §7

[4] = [3H]-naloxone, from IC50 by the Cheng-Prusoff equation, read-out: Human ORm Nal Ki

Chain of human μ opiate receptor (P35372 whole entry): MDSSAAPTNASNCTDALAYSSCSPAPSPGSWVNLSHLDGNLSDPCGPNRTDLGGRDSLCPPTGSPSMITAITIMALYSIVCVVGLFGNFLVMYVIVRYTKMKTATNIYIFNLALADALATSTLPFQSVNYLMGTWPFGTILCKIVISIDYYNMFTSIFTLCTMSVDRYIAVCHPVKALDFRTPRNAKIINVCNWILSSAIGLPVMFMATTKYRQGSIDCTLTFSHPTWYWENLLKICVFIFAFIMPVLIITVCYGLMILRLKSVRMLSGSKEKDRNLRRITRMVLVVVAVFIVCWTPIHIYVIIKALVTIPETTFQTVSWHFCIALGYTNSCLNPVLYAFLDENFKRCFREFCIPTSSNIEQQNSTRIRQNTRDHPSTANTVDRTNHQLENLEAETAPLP

CN(C)C(c1ccc(F)cc1)c1ccc(C(=O)NC2CCCCC2)n1C.Cl (centres unmarked) [Example 1, 5-[Dimethylamino-(4-fluoro-phenyl)-methyl]-1-methyl-1H-pyrrole-2-carboxylic acid cyclohexylamide hydrochloride]
Ki [1]: 0.16 µM
inhibition at 1 µM [1]: 62%
5-HT uptake inhibition [%] conc. 10 [2]: 57%
Noradrenalin uptake inhibition [%] conc. 10 [3]: 80%

CCCCNC(=O)c1ccc(C(c2ccc(F)cc2)N(C)C)n1C.Cl (centres unmarked) [Example 2, 5-[Dimethylamino-(4-fluoro-phenyl)-methyl]-1-methyl-1H-pyrrole-2-carboxylic acid butylamide hydrochloride]
Ki [1, 4]: 0.36 µM
inhibition at 1 µM [1]: 49%
5-HT uptake inhibition [%] conc. 10 [2]: 52%
Noradrenalin uptake inhibition [%] conc. 10 [3]: 72%

CN(C)C(c1ccc(F)cc1)c1ccc(C(=O)N2CCCC2)n1C.Cl (centres unmarked) [Example 3, {5-[Dimethylamino-(4-fluoro-phenyl)-methyl]-1-methyl-1H-pyrrol-2-yl}-pyrrolidin-1-yl-methanone hydrochloride]
Noradrenalin uptake inhibition [%] conc. 10 [3]: 38%

CN(C)C(c1ccc(Br)cc1)c1ccc(C(=O)NC2CCCCC2)n1C.Cl (centres unmarked) [Example 4, 5-[Dimethylamino-(4-bromo-phenyl)-methyl]-1-methyl-1H-pyrrole-2-carboxylic acid cyclohexylamide hydrochloride]
Ki [1, 4]: 0.79 µM
inhibition at 1 µM [1]: 80%
5-HT uptake inhibition [%] conc. 10 [2]: 72%
Noradrenalin uptake inhibition [%] conc. 10 [3]: 93%

CCCCNC(=O)c1ccc(C(c2ccc(Br)cc2)N(C)C)n1C.Cl (centres unmarked) [Example 5, 5-[Dimethylamino-(4-bromo-phenyl)-methyl]-1-methyl-1H-pyrrole-2-carboxylic acid butylamide hydrochloride]
inhibition at 1 µM [1]: 62%
5-HT uptake inhibition [%] conc. 10 [2]: 57%
Noradrenalin uptake inhibition [%] conc. 10 [3]: 86%

CN(C)C(c1ccc(Br)cc1)c1ccc(C(=O)N2CCCC2)n1C.Cl (centres unmarked) [Example 6, {5-[(4-Bromo-phenyl)-dimethylamino-methyl]-1-methyl-1H-pyrrol-2-yl)-pyrrolidin-1-yl-methanone hydrochloride]
5-HT uptake inhibition [%] conc. 10 [2]: 51%
Noradrenalin uptake inhibition [%] conc. 10 [3]: 83%

CN(C)C(c1ccc(Br)cc1)c1ccc(C(=O)NCCc2ccccc2)n1C.Cl (centres unmarked) [Example 7, 5-[(4-Bromo-phenyl)-dimethylamino-methyl]-1-methyl-1H-pyrrole-2-carboxylic acid phenethylamide hydrochloride]
Ki [1]: 1 µM
inhibition at 1 µM [1]: 65%
5-HT uptake inhibition [%] conc. 10 [2]: 93%
Noradrenalin uptake inhibition [%] conc. 10 [3]: 95%

CN(C)C(c1ccc(Br)cc1)c1ccc(C(=O)N2CCOCC2)n1C.Cl (centres unmarked) [Example 8, {5-[(4-Bromo-phenyl)-dimethylamino-methyl]-1-methyl-1H-pyrrol-2-yl}-morpholin-4-yl-methanone hydrochloride]
5-HT uptake inhibition [%] conc. 10 [2]: 79%
Noradrenalin uptake inhibition [%] conc. 10 [3]: 43%

CN(C)C(c1ccccc1)c1ccc(C(=O)NC2CCCCC2)n1C.Cl (centres unmarked) [Example 9, 5-(Dimethylamino-phenyl-methyl)-1-methyl-1H-pyrrole-2-carboxylic acid cyclohexylamide hydrochloride]
inhibition at 1 µM [1]: 76%
Noradrenalin uptake inhibition [%] conc. 10 [3]: 70%

CCCCNC(=O)c1ccc(C(c2ccccc2)N(C)C)n1C.Cl (centres unmarked) [Example 10, 5-(Dimethylamino-phenyl-methyl)-1-methyl-1H-pyrrole-2-carboxylic acid butylamide hydrochloride]
Noradrenalin uptake inhibition [%] conc. 10 [3]: 52%

CN(C)C(c1ccccc1)c1ccc(C(=O)N2CCCC2)n1C.Cl (centres unmarked) [Example 11, [5-(Dimethylamino-phenyl-methyl)-1-methyl-1H-pyrrol-2-yl]-pyrrolidin-1-yl-methanone hydrochloride]
inhibition at 1 µM [1]: 33%
5-HT uptake inhibition [%] conc. 10 [2]: 54%
